According to patent publication US6649623B1, “Cyclic amine derivatives and use thereof” (Shionogi & Co., Ltd., priority 1999, dated 2003):
Like-named read-outs stand apart in the source and are kept apart here.

How the values were obtained:
[1] = system: KK-Ay mouse; test: 7-day subcutaneous administration to KK-Ay mouse: body weight, food intake, blood glucose and insulin; format: in vivo; settings: 80 mg/kg s.c. for 7 days; for response vs control in vivo at 80 mg/kg: sc, 192 h, male KK-Ay mouse, average; for food intake (in words): KK-Ay mouse
Experimental: After 80 mg/kg of the present compound was administered subcutaneously for 7 days to 7-8 week aged male KK-Ay mouse (n=5˜7, CLEA JAPAN, INC), the amount of food intake from seventh day to eighth day, and body weight of eighth day were measured. For a control group, physiological saline was used. After the body weight was measured, the blood was collected from abdominal aorta by a syringe containing 50 U heparin and centrifuged 12,000×g for five min. Glucose in blood was measured by New Blood.Sugar.Test (Boehringer Ingelheim) and insulin was measured by Insulin-EIA Test (GLAOZYME). Each value is an average value and represented by percent to each value of eighth days in the control group. As to the compounds of and after Example 13, each corresponding hydrochloride was used.

[2] = system: KK-Ay mouse; test: Plasma leptin concentration in KK-Ay mouse (mouse leptin RIA kit); format: in vivo; settings: 40 mg/kg s.c., after 24 hours, saline group 26.7±1.9 ng/ml
Experimental: The compound 3cs of Example 3 (40 mg/kg ) was administered subcutaneously to KK-Ay mouse. After 24 hours, the concentration of leptin in plasma was measured by using mouse leptin RIA measuring kit (Linco). The blood was collected from abdominal aorta by a syringe containing 50 U heparin and centrifuged 12,000×g for 5 min to give plasma.

[3] = body weight of eighth day, percent to value of control group (physiological saline), read-out: Body weight
[4] = food intake from seventh to eighth day, percent to value of control group, read-out: Food intake
[5] = glucose in blood on eighth day, percent to value of control group, read-out: Glucose
[6] = insulin in blood on eighth day, percent to value of control group, read-out: Insulin

SMILES | response vs control in vivo at 80 mg/kg [1, 3] [%] | response vs control in vivo at 80 mg/kg [1, 4] [%] | response vs control in vivo at 80 mg/kg [1, 5] [%] | response vs control in vivo at 80 mg/kg [1, 6] [%] | food intake (in words) [1] | concentration of leptin in plasma [2] [ng/mL]
Clc1ccc(COCCCN2CC=CCC2)cc1Cl [Example 8, 1-[3-(3,4-Dichloro-benzyloxy)-propyl]-1,2,3,6-tetrahydro-pyridine] | 94 | 96 | 78 | 31 | – | –
Clc1ccc(OCCCN2CC=CCC2)cc1Cl [Example 3, 1-[3-(3,4-Dichloro-phenoxy)-propyl]-1,2,3,6-tetrahydro-pyridine] | 84 | 82 | 73 | 49 | little repressed | 44.8 ± 5.2
Cc1cc(OCCCN2CC=CCC2)ccc1F [Example 23] | 89 | 76 | 67 | 91 | – | –
Clc1ccc(NCCCN2CC=CCC2)cc1Cl [Example 11, (3,4-Dichlorophenyl)-[3-(3,6-dihydro-2-H-pyridin-1-yl)propyl]-amine] | 94 | 92 | 93 | 74 | – | –
Brc1ccc(OCCCN2CC=CCC2)c(Br)c1 [Example 2, 1-[3-(2,4-Dibromo-phenoxy)-propyl]-1,2,3,6-tetrahydro-pyridine] | 93 | 100 | 79 | 41 | little repressed | –
FC(F)(F)c1ccc(COc2ccc(OCCCN3CC=CCC3)cc2Cl)cc1 [Example 33] | 93 | 72 | 54 | 44 | – | –
Fc1ccc(OCCCN2CC=CCC2)c(F)c1 [Example 1, 1-[3-(2,4-Difluoro-phenoxy)-propyl]-1,2,3,6-tetrahydro-pyridine] | 85 | 76 | 56 | 12 | – | –
FC(F)(F)c1cccc(OCCCN2CC=CCC2)c1 [Example 39] | 95 | 78 | 70 | 52 | – | –
Clc1ccc(OCCCCN2CC=CCC2)cc1Cl [Example 10, 1-[4-(3,4-Dichloro-phenoxy)-butyl]-1,2,3,6-tetrahydro-pyridine] | 94 | 82 | 87 | 31 | – | –
FC(F)(F)c1ccc(Oc2ccc(OCCCN3CC=CCC3)cc2)cc1 [Example 44] | 82 | 59 | 54 | 21 | – | –
Fc1cc(F)c(OCCCN2CC=CCC2)c(F)c1 [Example 46] | 90 | 91 | 58 | 53 | – | –
CC(C)(C)c1cccc(OCCCN2CC=CCC2)c1 [Example 49] | 91 | 80 | 56 | 73 | – | –
Fc1cccc(F)c1OCCCN1CC=CCC1 [Example 36] | 86 | 75 | 61 | 54 | – | –
Cc1ccc(OCCCN2CC=CCC2)cc1C [Example 27] | 93 | 77 | 87 | 42 | – | –
Clc1ccc(OCCN2CC=CCC2)cc1Cl [Example 9, 1-[2-(3,4-Dichloro-phenoxy)-ethyl]-1,2,3,6-tetrahydro-pyridine] | 87 | 83 | 71 | 53 | – | –
Clc1cc(Cl)cc(OCCCN2CC=CCC2)c1 [Example 21] | 89 | 74 | 80 | 53 | – | –
Cc1ccc(OCCCN2CC=CCC2)c(Cl)c1 [Example 25] | 90 | 73 | 58 | 63 | – | –
C1=CCN(CCCOc2ccc3sccc3c2)CC1 [Example 17] | 94 | 84 | 99 | 84 | – | –
Fc1ccc(OCCCN2CC=CCC2)cc1F [Example 32] | 92 | 85 | 73 | 69 | – | –
Cc1ccc(F)c(OCCCN2CC=CCC2)c1 [Example 45] | 94 | 82 | 79 | 70 | – | –
FC(F)(F)c1cc(OCCCN2CC=CCC2)cc(C(F)(F)F)c1 [Example 41] | 88 | 77 | 56 | 48 | – | –
COc1cccc(OCCCN2CC=CCC2)c1 [Example 5, 1-[3-(3-Methoxy-phenoxy)-propyl]-1,2,3,6-tetrahydro-pyridine] | 94 | 88 | 62 | 38 | – | –
Brc1ccc(-c2ccc(OCCCN3CC=CCC3)cc2)cc1 [Example 30] | 95 | 73 | 62 | 50 | – | –
Clc1ccc(OCCCN2CC=CCC2)c(Cl)c1Cl [Example 7, 1-[3-(2,3,4-Trichloro-phenoxy)-propyl]-1,2,3,6-tetrahydro-pyridine] | 83 | 78 | 72 | 51 | – | –
Clc1ccc(OCCCN2CC=CCC2)c(Cl)c1 [Example 6, 1-[3-(2,4-Dichloro-phenoxy)-propyl]-1,2,3,6-tetrahydro-pyridine] | 85 | 84 | 76 | 32 | little repressed | –
Clc1cccc(OCCCN2CC=CCC2)c1 [Example 4, 1-[3-(3-Chlorophenoxy)-propyl]-1,2,3,6-tetrahydro-pyridine] | 87 | 79 | 84 | 47 | – | –
